One compound from ChEMBL document CHEMBL2074161, “Substrate upregulation of the human small intestinal peptide transporter, hPepT1” (J Physiol, 1998) can be followed below.

Peptide text beside a SMILES is read from it.

The test deals with T1, Solute carrier family 15 member 1 (Homo sapiens) (UniProt P46059).
T1 sequence (whole entry): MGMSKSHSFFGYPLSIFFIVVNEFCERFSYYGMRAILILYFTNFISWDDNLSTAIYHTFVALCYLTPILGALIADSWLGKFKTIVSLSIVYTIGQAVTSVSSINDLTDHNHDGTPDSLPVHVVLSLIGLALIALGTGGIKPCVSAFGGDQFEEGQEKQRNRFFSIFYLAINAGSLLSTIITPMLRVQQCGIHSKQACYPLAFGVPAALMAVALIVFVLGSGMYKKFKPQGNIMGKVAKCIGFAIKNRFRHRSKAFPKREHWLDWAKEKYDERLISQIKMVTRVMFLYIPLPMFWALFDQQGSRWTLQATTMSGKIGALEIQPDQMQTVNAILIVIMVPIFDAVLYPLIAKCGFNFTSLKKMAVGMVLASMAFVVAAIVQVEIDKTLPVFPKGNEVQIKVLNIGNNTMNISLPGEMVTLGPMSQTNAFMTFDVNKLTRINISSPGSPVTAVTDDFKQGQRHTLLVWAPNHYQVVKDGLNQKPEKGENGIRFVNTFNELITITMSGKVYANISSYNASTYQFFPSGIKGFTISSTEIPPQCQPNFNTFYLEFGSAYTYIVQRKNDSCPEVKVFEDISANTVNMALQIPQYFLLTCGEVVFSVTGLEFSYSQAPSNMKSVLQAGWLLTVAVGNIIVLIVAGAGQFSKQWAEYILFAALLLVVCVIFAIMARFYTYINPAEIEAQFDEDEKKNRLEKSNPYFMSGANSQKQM
Kind of test: TP_TRANSPORTER: upregulation of mRNA and protein in Caco-2 cells. The format is functional, cell-based.

With `NCC(=O)N[C@@H](CCC(N)=O)C(=O)O` (H-Gly-Gln-OH), the Activity result was “inducer [+]”.
